Our source for the IC50 values is ChEMBL document CHEMBL4000218, “Explicit treatment of active-site waters enhances quantum mechanical/implicit solvent scoring: Inhibition of CDK2 by new pyrazolo[1,5-a]pyrimidines” (Eur J Med Chem, 2017).

What is called IC50 is the midpoint of a concentration-inhibition curve.

The assay addresses Cyclin-dependent kinase 2/cyclin E1 (Homo sapiens, UniProt P24941). The experiment in a line: Inhibition of CDK2/cyclin E (unknown origin) expressed in baculovirus infected insect Sf9 cells using histone H1 as substrate in presence of [gamma-33P]ATP.
`NC(=O)c1ccc(-c2ccc(-c3cc(NCc4cccnc4)n4ncc(Br)c4n3)cc2)c(O)c1`: the IC50 amounted to 15 nM.

Regarding `CN(C)C(=O)c1ccc(-c2ccc(-c3cc(NCc4cccnc4)n4ncc(Br)c4n3)cc2)cc1`, the IC50 turned out to be 64 nM. In the case of `OCc1ccc(-c2ccc(-c3cc(NCc4cccnc4)n4nccc4n3)cc2)cc1` it was 6110 nM. `NC(=O)c1ccc(-c2ccc(-c3cc(NCc4cccnc4)n4nccc4n3)cc2)cc1O`: the IC50 is 2670 nM. In the case of `Nc1ccc(-c2ccc(-c3cc(NCc4cccnc4)n4nccc4n3)cc2)cc1` it was 4910 nM. As for `CCc1cnn2c(NCc3cccnc3)cc(-c3ccc(-c4ccc(C(N)=O)cc4)cc3)nc12`, the IC50 was determined as 18 nM. In the case of `c1ccc(-c2ccc(-c3cc(NCc4cccnc4)n4nccc4n3)cc2)cc1` it was 12600 nM; in that of `NC(=O)c1ccc(-c2ccc(-c3cc(NCc4cccnc4)n4nccc4n3)cc2)cc1`, 3940 nM. On to `NC(=O)c1ccc(-c2ccc(-c3cc(NCc4cccnc4)n4ncc(Br)c4n3)cc2)cc1O`, for which the IC50 amounted to 52 nM. In the case of `CN(C)C(=O)c1ccc(-c2ccc(-c3cc(NCc4cccnc4)n4nccc4n3)cc2)cc1` it was 1970 nM; in that of `CCc1cnn2c(NCc3cccnc3)cc(-c3ccc(-c4ccc(CO)cc4)cc3)nc12`, 130 nM; in that of `N#CCCc1cc(-c2ccc(-c3cc(NCc4cccnc4)n4nccc4n3)cc2)ccc1C(N)=O`, 5450 nM.

For the compound `COc1cc(-c2ccc(-c3cc(NCc4cccnc4)n4nccc4n3)cc2)ccc1C(N)=O`, the IC50 came out at 5530 nM. With `N#CCCc1cc(-c2ccc(-c3cc(NCc4cccnc4)n4ncc(Br)c4n3)cc2)ccc1C(N)=O`, the IC50 was found to be 53 nM. In the case of `Nc1ccc(-c2ccc(-c3cc(NCc4cccnc4)n4ncc(Br)c4n3)cc2)cc1` it was 140 nM; in that of `Brc1cnn2c(NCc3cccnc3)cc(-c3ccc(-c4ccccc4)cc3)nc12`, 490 nM; in that of `CCc1cnn2c(NCc3cccnc3)cc(-c3ccc(-c4ccc(C(N)=O)c(O)c4)cc3)nc12`, 31 nM. In the case of `Oc1ccc(-c2ccc(-c3cc(NCc4cccnc4)n4ncc(Br)c4n3)cc2)cc1` it was 140 nM. In the case of `OCc1ccc(-c2ccc(-c3cc(NCc4cccnc4)n4ncc(Br)c4n3)cc2)cc1` it was 45 nM; in that of `NC(=O)c1ccc(-c2ccc(-c3cc(NCc4cccnc4)n4ncc(Br)c4n3)cc2)cc1`, 37 nM.

For the compound `Oc1ccc(-c2ccc(-c3cc(NCc4cccnc4)n4nccc4n3)cc2)cc1`, the IC50 is 3860 nM.
